Laboratory results published in US11478464B1, “Method for treating inflammation” (KING FAISAL UNIVERSITY, priority 2022, dated 2022).
Where “and” joins values, the source holds several entries; their conditions need not be identical. Equal values may be shown once. Entries after “also recorded” stand apart in the source; their conditions may differ. Read-outs that look alike come from different tables or passages of the source.

Legend:
[1] = system: rat stomach; assay: Ulcerogenic effect on rat stomach (histopathology); type: in vivo; settings: 20 mg/kg oral single dose, 24 hours; for Rat stomach gastric layers, H&E: 10×; for Rat stomach inflammatory reaction, H&E: 40×
[2] = system: HEK293 cells; settings: 40 μM; for Proliferation of HEK293 (difference in absorbance between 450 and 620 nm), individual wells: WST-1
Protocol: HEK293 cells were treated with the compound solution at 40 μM or the vehicle dimethyl sulfoxide (DMSO) for 24 hours, with the addition of 5% fetal ox-like serum for recognition of cell feasibility reliant on mitochondrial movement.
Three wells were tested for each treatment. WST-1 reagent was added to each well, and the cells were incubated at 37° C.

[3] = system: rat stomach; assay: Ulcerogenic effect on rat stomach (histopathology); type: in vivo; settings: for Rat stomach collagen deposition, Masson's Trichrome stain, 10× / Rat stomach collagen deposition, Masson's Trichrome stain / Rat stomach collagen deposition, Masson's Trichrome stain, 40×: 20 mg/kg oral single dose, 24 hours; for Rat stomach collagen deposition, Masson's Trichrome stain: 10× and 40×; for Effect on gastric mucosa, in words: rat stomach
Protocol: Rats were starved for 24 hours at a normal room temperature of 25° C. with a 12-hour light/dark cycle. The reference drug for comparison was indomethacin. All compounds were administered orally at a single dose of 20 mg/kg. The rats were sacrificed after 24 hours, and their stomachs were retrieved and cleansed with normal saline. Each group's stomachs were examined using binocular magnification to detect the presence of a gastric lesion on the mucosa. The stomachs were then preserved in 10% w/v formalin for histological analysis. Exemplary photomicrographs are included in FIGS. 5A to 5H, and FIGS. 6A to 6H, as discussed further below.
This was accomplished by histopathologic examination of rat stomachs stained by Masson's Trichrome stain. See the photomicrographs of exemplary sections depicted in FIGS. 6A to 6H. Again, after application of Masson's Trichrome, the collagen fibrils are stained blue-green. The double-headed arrow represents collagen fibrils thickness in the submucosa.

[4] = system: rat paw; assay: Histopathologic examination of carrageenan-treated rat paw (H&E, Masson's trichrome); type: in vivo; settings: for Rat paw collagen deposition, Masson's Trichrome stain / Rat paw histopathology, H&E, 10× magnification: 10×; for Rat paw histopathology, H&E: inflammatory reaction and edema: H&E stain
Protocol: The rat paws were removed and promptly cleaned in saline solution. The specimens were then fixed in 10% natural formalin for two days, and then rinsed with running water overnight. The cleaned samples were then dehydrated in increasing concentrations of ethyl alcohol, beginning with 70% and ending with absolute alcohol.
The samples were cleared by soaking them in xylol for 2 hours. The cleared samples were placed in a covered jar containing 50% paraffin in xylol for 3 hours at 37° C. The samples were then immersed in melting paraffin and maintained at 48° C. for 2 hours before being blocked in hard paraffin and cut into 5-micron sections. Hematoxylin and eosin (H&E) and Masson's trichrome were used to stain the sections. To prepare for histopathological investigation, sections of control rat paws, as well as rat paws treated with carrageenan alone or along with Compound 1, Compound 2, or indomethacin, were mounted with Canada balsam and coated with a coverslip.
The density of the blue-green collagen is consistent with the relative amount of deposited total collagen fiber, which represents collagen synthesis, degradation, and remodeling—some of which is associated with inflammation.

[5] = system: carrageenan-induced rat paw edema; assay: Carrageenan-induced paw edema in rats; type: in vivo; settings: 10 mg/kg oral; for Paw size: individual rats; for Paw size, Average: average over all measurements 0-5 hours
Protocol: Carrageenan was injected subcutaneously into a rodent's paw to generate inflammation due to plasma extravasation, tissue proliferation, plasma protein release, and neutrophilic extravasation, all of which are caused by arachidonic acid digestion. The major phase of inflammation occurs after the carrageenan infusion, and lasts about two hours. This primary stage is associated with the emergence of histamine and serotonin. The next stage frequently is remodeling and edema, which lasts about five hours and begins at about the third hour after administration of carrageenan. The appearance of prostaglandins, proteases, and lysosomes is associated with this second stage of inflammation.
Adult male albino rats weighing 120 g-150 g were divided into five groups of seven rats, allowed free access to food and water at 25° C. and 12 h light/dark cycle. Inflammation was generated in the rats by subplantar injection of 0.2 ml of 1% carrageenan solution in 0.9 percent saline (Sigma-Aldrich, St. Louis, Mo., USA), and injected into the right hind paw. A vernier caliper (SMIEC, Shanghai, China) was used to measure the thickness of the rat paws before and after carrageenan injection to provide a measure of the inflammation caused by carrageenan.
Paw edema was measured at 0 minutes, 30 minutes, and 1, 2, 3, 4, and 5 hours following administration of the medication. Inhibition of edema was indicated by the reduction of increased thickness when comparing the treated and control groups.

Structure (SMILES)	Rat stomach gastric layers, H&E [1]	Rat stomach inflammatory reaction, H&E [1]	Proliferation of HEK293 (difference in absorbance between 450 and 620 nm), individual wells ([2]; 24 hours)	Proliferation of HEK293 (difference in absorbance between 450 and 620 nm), Average ([2]; 24 hours, WST-1, three wells)	Rat stomach collagen deposition, Masson's Trichrome stain, 10× [3]	Rat stomach collagen deposition, Masson's Trichrome stain [3]	Rat stomach collagen deposition, Masson's Trichrome stain, 40× [3]	Rat paw collagen deposition, Masson's Trichrome stain [4]	Rat paw histopathology, H&E, 10× magnification [4]	Rat paw histopathology, H&E, 40× magnification [4]	Rat paw histopathology, H&E: inflammatory reaction and edema [4]	Effect on rat paw edema, in words [5]	Paw size ([5]; 30 min)	Paw size ([5]; 1 hour)	Paw size ([5]; 2 hours)	Paw size ([5]; 3 hours)	Paw size ([5]; 4 hours)	Paw size ([5]; 5 hours)	Paw size, Average [5]	Paw size ([5]; zero time)	other results
CCOC(=O)c1cn(-c2cc(C#N)ccc2O)cc(Oc2ccccc2)c1=O [Compound 2, ethyl-1-(5-cyano-2-hydroxyphenyl)-4-oxo-5-phenoxy-1,4-dihydropyridine-3-carboxylate]	normal gastric layers	absence of any inflammatory reaction; also recorded: no sign of inflammatory reaction	1.0667 and 1.0476 and 1.0648	1.06	slight collagen deposition	slight collagen deposition	slight collagen deposition	slight collagen deposition; also recorded: lowest	substantial decrease in both inflammatory reaction (black star) and edema	slight inflammatory reaction (black star) and slight edema	reduce inflammatory cell infiltration and alleviate edema with lesser collagen deposition; also recorded: substantial decrease in both inflammatory reaction (black star) and a pronounced decline in edema	demonstrated to treat paw swelling; also recorded: significant decreases in rat paw size; also recorded: dramatically reduced	0.7 cm (3×) and 0.65 cm (2×) and 0.55 cm (2×)	0.55 cm and 0.5 cm (3×) and 0.45 cm (3×)	0.45 cm (2×) and 0.4 cm (5×)	0.35 cm and 0.4 cm (5×) and 0.45 cm	0.4 cm (5×) and 0.45 cm (2×)	0.55 cm and 0.6 cm (5×) and 0.5 cm	0.524 cm	0.75 cm (5×) and 0.7 cm (2×)	Effect on gastric mucosa, in words [3]: no effect on gastric mucosa integrity or mucosa collagen content; also recorded: devoid of side effects on gastric mucosa
Cc1cccc2[nH]c(C3CCCN(C(=O)c4ccccc4NCC(=O)O)C3)nc12 (stereo not shown) [Compound 1, [(2-{[3-(4-methyl-1H-benzimidazol-2-yl)piperidin-1-yl]carbonyl}phenyl)amino] acetic acid]	normal gastric layers	no sign of inflammatory reaction	1.0653 and 1.0573 and 1.0547	1.06	normal collagen deposition	normal collagen deposition	normal collagen deposition	slight collagen deposition	significant decrease in dermal thickness, inflammatory reaction in the deep dermis (black star), and moderate improvement in edema	slight inflammatory reaction (black star) and slight edema	reduce inflammatory cell infiltration and alleviate edema with lesser collagen deposition; also recorded: marked improvement in the degree of edema and the inflammatory cell infiltration	demonstrated to treat paw swelling; also recorded: significant decreases in rat paw size; also recorded: dramatically reduced	0.7 cm (3×) and 0.65 cm (4×)	0.55 cm and 0.5 cm (4×) and 0.45 cm (2×)	0.5 cm (2×) and 0.45 cm (3×) and 0.4 cm (2×)	0.4 cm (3×) and 0.35 cm and 0.45 cm (3×)	0.45 cm (2×) and 0.4 cm (4×) and 0.5 cm	0.55 cm and 0.6 cm (4×) and 0.65 cm (2×)	0.542 cm	0.75 cm (4×) and 0.7 cm (3×)	Rat stomach inflammatory reaction, H&E ([1]; listed as compound 1): absence of any inflammatory reaction; Effect on gastric mucosa, in words [3]: no effect on gastric mucosa integrity or mucosa collagen content; also recorded: devoid of side effects on gastric mucosa
COc1ccc2c(c1)c(CC(=O)O)c(C)n2C(=O)c1ccc(Cl)cc1 [Indomethacin, reference compound]	slight degeneration of gastric layers	absence of any inflammatory reaction; also recorded: no sign of inflammatory reaction	–	–	significant collagen deposition	significant collagen deposition	collagen deposition	slight collagen deposition	significant decrease in inflammatory reaction (black star) and a moderate decrease in edema	slight inflammatory reaction (black star) and slight edema	significant decrease in the degree of inflammatory reaction (black star), and a moderate decrease in edema	significantly reduced rat paw edema; also recorded: dramatically reduced	0.7 cm and 0.6 cm (4×) and 0.65 cm (2×)	0.5 cm (2×) and 0.4 cm (4×) and 0.45 cm	0.45 cm and 0.4 cm (3×) and 0.35 cm (3×)	0.4 cm (5×) and 0.35 cm (2×)	0.35 cm (4×) and 0.4 cm (3×)	0.5 cm and 0.55 cm (4×) and 0.45 cm (2×)	0.494 cm	0.7 cm (2×) and 0.75 cm (5×)	–
O=C(O)Cc1ccccc1Nc1c(Cl)cccc1Cl [Diclofenac, reference compound]	–	–	–	–	–	–	–	–	–	–	–	significantly reduced rat paw edema	0.7 cm and 0.65 cm (4×) and 0.6 cm (2×)	0.55 cm and 0.5 cm (3×) and 0.4 cm (2×) and 0.45 cm	0.45 cm (4×) and 0.4 cm (3×)	0.4 cm (4×) and 0.35 cm (2×) and 0.45 cm	0.35 cm (2×) and 0.4 cm (3×) and 0.45 cm (2×)	0.55 cm (3×) and 0.6 cm (4×)	0.518 cm	0.7 cm (5×) and 0.75 cm (2×)	Proliferation of HEK293 (difference in absorbance between 450 and 620 nm), Average ([2]; human, 24 h): 1
Cc1ccc(-c2cc(C(F)(F)F)nn2-c2ccc(S(N)(=O)=O)cc2)cc1 [Celecoxib, reference compound]	–	–	–	–	–	–	–	–	–	–	–	dramatically reduced	–	–	–	–	–	–	–	–	Cytotoxicity: morphological changes or damages in HEK293 cells ([2]; human, 24 h): caused changes and damages in HEK293 cells
